Results from patent US12077503B2, “Substituted cyclic amides and their use as herbicides” (FMC CORPORATION, priority 2015, dated 2024).

Columns and labels:
Assay type in all cases: in vivo
[1] = system: ivy-leaved morning glory (Ipomoea hederacea); assay: Test G Post-Emergence Protocol; conditions: Ipomoea, post-emergence, 312 h, read-out: Morningglory, Ivy-leaved damage rating; for pest or weed control at 15.625 g/ha: 15.625 g ai/ha, evaluated after 13 days (100=total damage to plant; 0=no damage to plant); for pest or weed control at 62.5 g/ha: 62.5 g ai/ha; for pest or weed control at 62.5 g/ha / pest or weed control at 250 g/ha: evaluated after 13 days, 100=total damage to plant, 0=no damage to plant; for pest or weed control at 250 g/ha: 250 g ai/ha
Summary of the method: (§1)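 Damage was rated 13 days after treatment from 0 (none) to 100 (plant killed). Compound was applied as a spray at 15.625, 62.5 or 250 g/ha in 50:50 acetone/water containing 0.5% Tween 20, onto 8-day-old potted plants kept in a glasshouse (24/16 °C, 14 h light, 65% humidity).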

[2] = system: barnyardgrass (Echinochloa crus-galli); assay: Test G Post-Emergence Protocol; conditions: Echinochloa crus-galli, post-emergence, 312 h, read-out: Barnyardgrass damage rating; for pest or weed control at 15.625 g/ha: 15.625 g ai/ha, evaluated after 13 days (100=total damage to plant; 0=no damage to plant); for pest or weed control at 62.5 g/ha: 62.5 g ai/ha; for pest or weed control at 62.5 g/ha / pest or weed control at 250 g/ha: evaluated after 13 days, 100=total damage to plant, 0=no damage to plant; for pest or weed control at 250 g/ha: 250 g ai/ha
Summary of the method: as §1

[3] = system: velvetleaf (Abutilon theophrasti); assay: Test G Post-Emergence Protocol; conditions: Abutilon theophrasti, post-emergence, 312 h, read-out: Velvetleaf damage rating; for pest or weed control at 15.625 g/ha: 15.625 g ai/ha, evaluated after 13 days (100=total damage to plant; 0=no damage to plant); for pest or weed control at 62.5 g/ha: 62.5 g ai/ha; for pest or weed control at 62.5 g/ha / pest or weed control at 250 g/ha: evaluated after 13 days, 100=total damage to plant, 0=no damage to plant; for pest or weed control at 250 g/ha: 250 g ai/ha
Summary of the method: as §1

[4] = system: redroot pigweed (Amaranthus retroflexus); assay: Test G Post-Emergence Protocol; conditions: Amaranthus retroflexus, post-emergence, 312 h, read-out: Pigweed, Redroot damage rating; for pest or weed control at 15.625 g/ha: 15.625 g ai/ha, evaluated after 13 days (100=total damage to plant; 0=no damage to plant); for pest or weed control at 62.5 g/ha: 62.5 g ai/ha; for pest or weed control at 62.5 g/ha / pest or weed control at 250 g/ha: evaluated after 13 days, 100=total damage to plant, 0=no damage to plant; for pest or weed control at 250 g/ha: 250 g ai/ha
Summary of the method: as §1

corn (Zea mays) [5] = assay: Test G Post-Emergence Protocol; conditions: Zea mays, post-emergence, 312 h, read-out: Corn damage rating; for plant injury at 15.625 g/ha: 15.625 g ai/ha, evaluated after 13 days (100=total damage to plant; 0=no damage to plant); for plant injury at 62.5 g/ha: 62.5 g ai/ha; for plant injury at 62.5 g/ha / plant injury at 250 g/ha: evaluated after 13 days, 100=total damage to plant, 0=no damage to plant; for plant injury at 250 g/ha: 250 g ai/ha
Summary of the method: as §1

[6] = system: giant foxtail (Setaria faberi); assay: Test G Post-Emergence Protocol; conditions: Setaria faberi, post-emergence, 312 h, read-out: Foxtail, Giant damage rating; for pest or weed control at 15.625 g/ha: 15.625 g ai/ha, evaluated after 13 days (100=total damage to plant; 0=no damage to plant); for pest or weed control at 62.5 g/ha: 62.5 g ai/ha; for pest or weed control at 62.5 g/ha / pest or weed control at 250 g/ha: evaluated after 13 days, 100=total damage to plant, 0=no damage to plant; for pest or weed control at 250 g/ha: 250 g ai/ha
Summary of the method: as §1

[7] = system: ivy-leaved morning glory (Ipomoea hederacea); assay: Test G Pre-Emergence Protocol; conditions: Ipomoea, pre-emergence, 312 h, evaluated after 13 days; for pest or weed control at 15.625 g/ha: 15.625 g ai/ha; for pest or weed control at 15.625 g/ha / pest or weed control at 250 g/ha: read-out: Morningglory, Ivy-leaved damage rating (100=total damage to plant; 0=no damage to plant); for pest or weed control at 62.5 g/ha: 62.5 g ai/ha, 100=total damage to plant, 0=no damage to plant, read-out: Morningglory, Ivy-leaved damage rating; for pest or weed control at 250 g/ha: 250 g ai/ha
Summary of the method: (§2)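 Pots of seeds in standard soil were grown for one day in a glasshouse (24/16 °C day/night, 14 h light, 65% humidity), then sprayed with compound in acetone/water 50:50 with 0.5% Tween 20 at 15.625, 62.5 or 250 g/ha. Damage was scored after 13 days on a 0 (none) to 100 (total) scale.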

[8] = system: barnyardgrass (Echinochloa crus-galli); assay: Test G Pre-Emergence Protocol; conditions: Echinochloa crus-galli, pre-emergence, 312 h, evaluated after 13 days; for pest or weed control at 15.625 g/ha: 15.625 g ai/ha; for pest or weed control at 15.625 g/ha / pest or weed control at 250 g/ha: read-out: Barnyardgrass damage rating (100=total damage to plant; 0=no damage to plant); for pest or weed control at 62.5 g/ha: 62.5 g ai/ha, 100=total damage to plant, 0=no damage to plant, read-out: Barnyardgrass damage rating; for pest or weed control at 250 g/ha: 250 g ai/ha
Summary of the method: as §2

[9] = system: velvetleaf (Abutilon theophrasti); assay: Test G Pre-Emergence Protocol; conditions: Abutilon theophrasti, pre-emergence, 312 h, evaluated after 13 days; for pest or weed control at 15.625 g/ha: 15.625 g ai/ha; for pest or weed control at 15.625 g/ha / pest or weed control at 250 g/ha: read-out: Velvetleaf damage rating (100=total damage to plant; 0=no damage to plant); for pest or weed control at 62.5 g/ha: 62.5 g ai/ha, 100=total damage to plant, 0=no damage to plant, read-out: Velvetleaf damage rating; for pest or weed control at 250 g/ha: 250 g ai/ha
Summary of the method: as §2

[10] = system: redroot pigweed (Amaranthus retroflexus); assay: Test G Pre-Emergence Protocol; conditions: Amaranthus retroflexus, pre-emergence, 312 h, evaluated after 13 days; for pest or weed control at 15.625 g/ha: 15.625 g ai/ha; for pest or weed control at 15.625 g/ha / pest or weed control at 250 g/ha: read-out: Pigweed, Redroot damage rating (100=total damage to plant; 0=no damage to plant); for pest or weed control at 62.5 g/ha: 62.5 g ai/ha, 100=total damage to plant, 0=no damage to plant, read-out: Pigweed, Redroot damage rating; for pest or weed control at 250 g/ha: 250 g ai/ha
Summary of the method: as §2

corn (Zea mays) [11] = assay: Test G Pre-Emergence Protocol; conditions: Zea mays, pre-emergence, 312 h, evaluated after 13 days; for plant injury at 15.625 g/ha: 15.625 g ai/ha; for plant injury at 15.625 g/ha / plant injury at 250 g/ha: read-out: Corn damage rating (100=total damage to plant; 0=no damage to plant); for plant injury at 62.5 g/ha: 62.5 g ai/ha, 100=total damage to plant, 0=no damage to plant, read-out: Corn damage rating; for plant injury at 250 g/ha: 250 g ai/ha
Summary of the method: as §2

[12] = system: giant foxtail (Setaria faberi); assay: Test G Pre-Emergence Protocol; conditions: Setaria faberi, pre-emergence, 312 h, evaluated after 13 days; for pest or weed control at 15.625 g/ha: 15.625 g ai/ha; for pest or weed control at 15.625 g/ha / pest or weed control at 250 g/ha: read-out: Foxtail, Giant damage rating (100=total damage to plant; 0=no damage to plant); for pest or weed control at 62.5 g/ha: 62.5 g ai/ha, 100=total damage to plant, 0=no damage to plant, read-out: Foxtail, Giant damage rating; for pest or weed control at 250 g/ha: 250 g ai/ha
Summary of the method: as §2

Row | Structure (SMILES) | pest or weed control at 15.625 g/ha [1] [%] | pest or weed control at 62.5 g/ha [1] [%] | pest or weed control at 250 g/ha [1] [%] | pest or weed control at 15.625 g/ha [2] [%] | pest or weed control at 62.5 g/ha [2] [%] | pest or weed control at 250 g/ha [2] [%] | pest or weed control at 15.625 g/ha [3] [%] | pest or weed control at 62.5 g/ha [3] [%] | pest or weed control at 250 g/ha [3] [%] | pest or weed control at 15.625 g/ha [4] [%] | pest or weed control at 62.5 g/ha [4] [%] | pest or weed control at 250 g/ha [4] [%] | plant injury at 15.625 g/ha (corn (Zea mays) [5]) [%] | plant injury at 62.5 g/ha (corn (Zea mays) [5]) [%] | plant injury at 250 g/ha (corn (Zea mays) [5]) [%] | pest or weed control at 15.625 g/ha [6] [%] | pest or weed control at 62.5 g/ha [6] [%] | pest or weed control at 250 g/ha [6] [%] | pest or weed control at 15.625 g/ha [7] [%] | pest or weed control at 62.5 g/ha [7] [%] | other results
1 | Cc1c(F)cccc1NC(=O)[C@@H]1C(=O)N(C)C[C@H]1c1cccc(OCC(F)(F)F)c1 (racemic) [Compound 1764] | 10 | 30 | 70 | 40 | 50 | 80 | 20 | 40 | 60 | 0 | 10 | 30 | 10 | 10 | 70 | 70 | 80 | 80 | 0 | 0 | pest or weed control at 250 g/ha [7]: 20%; pest or weed control at 15.625 g/ha [8]: 40%; pest or weed control at 62.5 g/ha [8]: 70%; pest or weed control at 250 g/ha [8]: 80%; pest or weed control at 15.625 g/ha [9]: 0%; pest or weed control at 62.5 g/ha [9]: 10%; pest or weed control at 250 g/ha [9]: 30%; pest or weed control at 15.625 g/ha [10]: 0%; pest or weed control at 62.5 g/ha [10]: 10%; pest or weed control at 250 g/ha [10]: 30%; plant injury at 15.625 g/ha (corn (Zea mays) [11]): 0%; plant injury at 62.5 g/ha (corn (Zea mays) [11]): 20%; plant injury at 250 g/ha (corn (Zea mays) [11]): 70%; pest or weed control at 15.625 g/ha [12]: 60%; pest or weed control at 62.5 g/ha [12]: 70%; pest or weed control at 250 g/ha [12]: 80%
2 | COCCOc1cccc([C@@H]2CN(C)C(=O)[C@H]2C(=O)Nc2cccc(F)c2C)c1 (racemic) [Compound 1765] | 0 | 0 | 20 | 0 | 30 | 70 | 0 | 0 | 0 | 0 | 0 | 0 | 0 | 10 | 10 | 10 | 60 | 70 | 0 | 0 | pest or weed control at 250 g/ha [7]: 0%; pest or weed control at 15.625 g/ha [8]: 20%; pest or weed control at 62.5 g/ha [8]: 50%; pest or weed control at 250 g/ha [8]: 60%; pest or weed control at 15.625 g/ha [9]: 0%; pest or weed control at 62.5 g/ha [9]: 0%; pest or weed control at 250 g/ha [9]: 0%; pest or weed control at 15.625 g/ha [10]: 0%; pest or weed control at 62.5 g/ha [10]: 0%; pest or weed control at 250 g/ha [10]: 0%; plant injury at 15.625 g/ha (corn (Zea mays) [11]): 0%; plant injury at 62.5 g/ha (corn (Zea mays) [11]): 0%; plant injury at 250 g/ha (corn (Zea mays) [11]): 20%; pest or weed control at 15.625 g/ha [12]: 50%; pest or weed control at 62.5 g/ha [12]: 70%; pest or weed control at 250 g/ha [12]: 90%
3 | Cc1c(F)cccc1NC(=O)[C@@H]1C(=O)N(C)C[C@H]1c1cccc(OCC2CC2)c1 (racemic) [Compound 1766] | 0 | 20 | 40 | 60 | 30 | 80 | 0 | 0 | 10 | 0 | 0 | 20 | 30 | 20 | 60 | 20 | 50 | 80 | 0 | 0 | pest or weed control at 250 g/ha [7]: 0%; pest or weed control at 15.625 g/ha [8]: 10%; pest or weed control at 62.5 g/ha [8]: 60%; pest or weed control at 250 g/ha [8]: 80%; pest or weed control at 15.625 g/ha [9]: 0%; pest or weed control at 62.5 g/ha [9]: 0%; pest or weed control at 250 g/ha [9]: 10%; pest or weed control at 15.625 g/ha [10]: 0%; pest or weed control at 62.5 g/ha [10]: 0%; pest or weed control at 250 g/ha [10]: 0%; plant injury at 15.625 g/ha (corn (Zea mays) [11]): 20%; plant injury at 62.5 g/ha (corn (Zea mays) [11]): 10%; plant injury at 250 g/ha (corn (Zea mays) [11]): 20%; pest or weed control at 15.625 g/ha [12]: 30%; pest or weed control at 62.5 g/ha [12]: 70%; pest or weed control at 250 g/ha [12]: 70%
